Key:
Type in all cases: biochemical
tau187 [1] = target: T1, tau187 (Homo sapiens, UniProt P10636); assay: Turbidity (OD350) assay of heparin-induced aggregation, tau187; conditions: trimer 12.5 uM as pure trimer or as whole extract (0.22 mg/mL CE); OD 350 (FIG. 17)
T1 construct: his; made in house; host or cells: bacteria
Method: FIG. 15A. […] 50 μM Tau^187 was incubated with 0.11 mg/ml heparin (18 kDa) at 23° C. Aggregation was monitored by turbidity (OD350). Cinnamaldehyde was present at a final concentration of 0, 50 and 100 μM. FIG. 15B. Electron microscopy of tau fibers in the presence of cinnamaldehyde (CA). Tau fibers were visualized by electron microscopy after 5 hrs of aggregation in the presence of: 0 CA (left panel); B) 100 uM CA (right panel). […] FIG. 15 C. Trans-cinnamaldehyde chemical structure. FIG. 16A. […] 50 uM tau187 was incubated with 0.11 mg/mL heparin (18 kDa) at 23° C. Epicatechin was untreated, treated with 10 mM NH4OH for 10 min at 95° C. then neutralized, or treated with 100 U of mushroom tyrosinase (Sigma) for 10 min. Epicatechin was added to the reaction at a final concentration of 25 uM. Fiber formation was monitored by OD 350. FIG. 16B. epicatechin and catechin chemical structures. FIG. 17A. HPLC analysis of proanthocyanidin A-type trimer, A) purified or B) in whole cinnamon extract. The trimer corresponds to the major peak at ˜40 min. Areas underneath the peaks in panels A and B each correspond to 6150 pmoles. […] Fiber formation was monitored by OD 350. Concentrations of A-trimer in pure form and in whole cinnamon extract (CE) were normalized by absorbance measurements of the A-trimer resolved by HPLC. […]

FL-tau = target: T2, FL-tau (Homo sapiens, UniProt P10636); assay: Electron microscopy of FL-tau fibers; conditions: FL-tau 50 uM, heparin 0.1 mg/ml; trimer 200 uM (FIG. 3d)
T2 construct: full-length tau and an engineered truncation fragment of tau (tau187) were generated by over-expression of the recombinant human protein in bacteria; made in house; host or cells: bacteria
T2 sequence (P10636 1-441 isoform P10636-8): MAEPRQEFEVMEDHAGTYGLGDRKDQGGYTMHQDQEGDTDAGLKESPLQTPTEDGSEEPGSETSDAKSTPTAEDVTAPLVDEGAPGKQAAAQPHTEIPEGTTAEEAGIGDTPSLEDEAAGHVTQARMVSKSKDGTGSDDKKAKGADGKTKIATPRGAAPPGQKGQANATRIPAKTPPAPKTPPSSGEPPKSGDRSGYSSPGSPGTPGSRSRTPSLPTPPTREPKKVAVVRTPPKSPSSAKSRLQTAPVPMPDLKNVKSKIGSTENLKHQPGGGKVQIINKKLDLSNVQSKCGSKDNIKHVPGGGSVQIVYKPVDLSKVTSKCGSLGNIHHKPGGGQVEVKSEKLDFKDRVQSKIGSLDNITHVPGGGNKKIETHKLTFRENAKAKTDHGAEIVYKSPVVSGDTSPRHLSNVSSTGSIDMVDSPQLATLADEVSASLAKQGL
Method: FIG. 3. Proanthocyanidins inhibit tau aggregation. A) Turbidity assay. Aggregation of FL-tau (50 uM) was initiated with heparin (0.1 mg/ml) in 20 mM NaPO4, pH 7.0. Curve 1: no proanthocyanidin; Curve 2: 200 uM purified A-type trimer. B) After 45 min, reactions were centrifuged at 100,000 g×60 min. The amount of tau in the pellets (P) vs. supernatants (S) were examined by SDS-PAGE. Markers (top to bottom) are 97, 66, 45 kDa. C, D) EM after aggregation for 45 min. Scale bars=500 nm; C) no proanthocyanidin, D) 200 uM purified A-type trimer.
As shown by the data disclosed in the various figures, proanthocyanidins bind to tau and inhibit tau aggregation. […] In these experiments, heparin-induced aggregation of tau into PHF-like fibers is routinely monitored by four methods: 1) enhanced Thioflavin S fluorescence emission; 2) increased turbidity measured by OD350; 3) ultracentrifugation of sarkosyl-treated samples, and 4) electron microscopy. […] To ensure that proanthocyanidin molecules were not simply binding to and precipitating tau in a non-specific manner, the amount of tau that fractionated with the pellet vs. supernatant after high-speed ultracentrifugation was analyzed.

tau187 [2] = target: T1, tau187; assay: Electron microscopy of tau187 fibers; conditions: tau187 50 uM, heparin 0.1 mg/ml; trimer 200 uM (FIG. 6)
Method: FIG. 6. […] Aggregation of tau^187 (50 uM) was initiated with heparin (0.1 mg/ml) in 20 mM NaPO4, pH 7.0. in the presence of: no proanthocyanidin (left panel), or 200 uM purified A-type trimer (right panel). Scale: Bars=500 nm
FIG. 13. Effect of oxidized cinnamon on tau filament formation. […] Left panel: no cinnamon; right panel 10 μM oxidized cinnamon.
FIG. 15A. […] 50 μM Tau^187 was incubated with 0.11 mg/ml heparin (18 kDa) at 23° C. Aggregation was monitored by turbidity (OD350). Cinnamaldehyde was present at a final concentration of 0, 50 and 100 μM. FIG. 15B. Electron microscopy of tau fibers in the presence of cinnamaldehyde (CA). Tau fibers were visualized by electron microscopy after 5 hrs of aggregation in the presence of: 0 CA (left panel); B) 100 uM CA (right panel). […] FIG. 15 C. Trans-cinnamaldehyde chemical structure.
Two hexapeptide motifs in tau are critical for tau aggregation and fiber formation (see, e.g. von Bergen et al., Proc Nad Acad Sci USA 97, 5129-34 (2000)). These motifs lie in the first and second inter-repeat regions of the MT binding domain (FIG. 5), and it is known that engineered truncation fragments of tau that contain these motifs often undergo aggregation into fibers even more efficiently than the full-length molecule (see, e.g. Barghorn et al., Biochemistry 41, 14885-96 (2002)). […]

[3] = system: tau-dependent MT assembly; assay: Tau-dependent microtubule assembly, turbidity OD350; conditions: tubulin 5 uM, tau187, turbidity OD350
Method: FIG. 9. […] Tubulin (5 uM) was incubated (a) alone, or with (b) CE, (c) tau or (d) both. MT assembly was monitored by turbidity at OD350 in a continuous spectrophotometric assay.
The normal function of tau in neurons is to regulate MT assembly and dynamics. Thus it is desirable for a potential AD therapeutic to inhibit tau aggregation but not impede normal tau function. To test this, purified tubulin was incubated with either CE, tau187 or both, and MT assembly was monitored by solution turbidity. […] The reason for this is unclear, but since tau is normally an unstructured molecule, it is possible that CE promotes a conformer in tau that favors MT binding. Thus CE and proanthocyanidins appear to act as specific inhibitors of tau aggregation that are free of side effects on normal neuron function.

T1 sequence (P10636 572-758 limits assumed): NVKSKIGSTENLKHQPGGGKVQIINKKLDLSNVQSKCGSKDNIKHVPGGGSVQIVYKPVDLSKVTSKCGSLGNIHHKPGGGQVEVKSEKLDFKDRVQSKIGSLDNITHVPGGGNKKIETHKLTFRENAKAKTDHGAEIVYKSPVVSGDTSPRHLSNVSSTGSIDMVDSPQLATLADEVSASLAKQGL

Inhibition of tau187 aggregation, whole extract vs pure trimer at equal trimer content (tau187 [1]): inhibits tau polypeptide aggregation
Inhibition of tau187 aggregation by EM (tau187 [2]): effectively inhibited
Substance: A-linked proanthocyanidin trimer [A-type trimer]
FL-tau fibers by EM after aggregation for 45 min (FL-tau): short fibers that were very much less abundant
Effect on tau-dependent MT assembly [3]: does not inhibit

Reference: patent US20110263696A1, “PROANTHOCYANIDINS FROM CINNAMON AND ITS WATER SOLUBLE EXTRACT INHIBIT TAU AGGREGATION” (priority 2007, published 2011)
